Results taken from US20220380347A1, “INHIBITORS OF CYSTEINE PROTEASES AND METHODS OF USE THEREOF” (Pardes Biosciences, Inc., priority 2020, published 2022).
Read-outs that look alike come from different tables or passages of the source.

How the values were obtained:
229E Mpro = 229E Mpro (Human coronavirus 229E, UniProt P0C6X1); assay: 229E Mpro enzymatic assay (standard methods, SARS-CoV2 Mpro assay given as exemplary); format: biochemical, human coronavirus (HCov) 229E
How it was run: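 IC50 for 229E Mpro by standard methods; exemplary SARS-CoV-2 protocol used C-His6-tagged Mpro from E. coli, 25 nM enzyme, 25 μM substrate (Km 13.5 μM), in Tris-HCl pH 7.3, NaCl, EDTA, TCEP, 0.1% BSA. Inhibition normalised to no-compound and full-effect controls; four-parameter fit.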

HCov OC43 = assay: HCoV OC43 cytopathic effect (CPE) assay, CellTiter Glo; format: cell-based, human coronavirus (HCov) OC43
HCoV 229E = HCoV 229E cytopathic effect (CPE) assay, CellTiter Glo; format: cell-based, human coronavirus (HCov) 229E; settings: protection of virus-induced CPE
Method: Example 238: Evaluation of antiviral activity of compounds against human coronavirus (HCov) 229E and OC43 in the cytopathic effect (CPE) assays
Compounds were assayed using standard methods against multiple coronaviral strains, including HCoV 229E and OC43 strains. The antiviral activity of compounds was calculated based on the protection of the virus-induced CPE at each concentration normalized by the virus control.
Cytopathic effect (CPE) was measured by CellTiter Glo following the manufacturer's manual. The antiviral activity of compounds was calculated based on the protection of the virus-induced CPE at each concentration normalized by the virus control.
Cell viability was measured with CellTiter Glo.

[1] = biological target: COVID-19 (nCoV-2019, SARS-CoV2) Mpro (Severe acute respiratory syndrome coronavirus 2, UniProt P0DTD1); assay: COVID-19 (nCoV-2019, SARS-CoV2) Mpro enzymatic assay; format: biochemical; settings: 25 nM Mpro, 25 μM substrate; read-out: COVID-19 Mpro IC50
[2] = Betacoronavirus 1, OC43, read-out: OC43 IC50 (uM) MEDIAN, median
[3] = read-out: OC43 IC50 (uM) MEDIAN, median

Sequence of 229E Mpro (P0C6X1 2966-3267): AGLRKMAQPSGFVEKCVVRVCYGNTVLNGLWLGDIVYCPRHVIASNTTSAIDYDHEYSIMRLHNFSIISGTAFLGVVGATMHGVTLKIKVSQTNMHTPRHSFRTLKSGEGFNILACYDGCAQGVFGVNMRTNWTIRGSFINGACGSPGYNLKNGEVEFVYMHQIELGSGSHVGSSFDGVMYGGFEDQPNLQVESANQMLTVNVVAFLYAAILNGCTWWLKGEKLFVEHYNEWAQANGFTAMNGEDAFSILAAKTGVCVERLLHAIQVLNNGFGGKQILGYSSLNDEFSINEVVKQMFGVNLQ

## CC(C)(C)c1ccc(N(C(=O)[C@H]2C[C@@H](F)CN2C#N)C(C(=O)NC2CCCCC2)c2cccnc2)cc1 (single isomer, unassigned) [Compound 870 Isomer 1]
229E Mpro; 229E Mpro EC50
  EC50: < 2 µM
HCov OC43; [2]
  IC50: < 2 µM
HCoV 229E; unidentified human coronavirus
  EC50: < 2 µM
[1]
  IC50: < 2 µM

## CC(C)(C)c1ccc(N(C(=O)[C@H]2C[C@@H](F)CN2C#N)C(C(=O)NC2CCCCC2)c2cccnc2)cc1 (single isomer, unassigned) [Compound 870 Isomer 2]
229E Mpro; read-out: 229E Mpro EC50
  EC50: < 2 µM
HCov OC43; [3]
  IC50: < 2 µM
HCoV 229E
  EC50: 2 to 10 µM
[1]
  IC50: 2 to 10 µM

## CC(C)(C)c1ccc(N(C(=O)[C@H]2CC(F)(F)CN2C#N)C(C(=O)NC2CCCCC2)c2cccnc2)cc1 (single isomer, unassigned) [Compound 876 Isomer 1]
229E Mpro; 229E Mpro EC50
  EC50: < 2 µM
HCov OC43; read-out: OC43 IC50 (uM) MEDIAN, median, listed as 876 Isomer 1
  IC50: 10 to 30 µM
HCoV 229E; unidentified human coronavirus
  EC50: < 2 µM
[1]
  IC50: 2 to 10 µM

## C[C@@]1(O)C[C@H](C(=O)N(c2ccc(S(F)(F)(F)(F)F)cc2)C(C(=O)NC2CCC(F)(F)CC2)c2cccnc2)N(C#N)C1 (single isomer, unassigned) [Compound 1156 Isomer 1]
229E Mpro; 229E Mpro EC50
  EC50: < 2 µM
HCov OC43; [2]
  IC50: 2 to 10 µM
HCoV 229E; unidentified human coronavirus
  EC50: < 2 µM
[1]
  IC50: 2 to 10 µM

## C[C@@]1(O)C[C@H](C(=O)N(c2ccc(S(F)(F)(F)(F)F)cc2)C(C(=O)NC2CCC(F)(F)CC2)c2cccnc2)N(C#N)C1 (single isomer, unassigned) [Compound 1156 Isomer 2]
229E Mpro; read-out: 229E Mpro EC50
  EC50: < 2 µM
HCov OC43; [3]
  IC50: < 2 µM
HCoV 229E
  EC50: 2 to 10 µM
[1]
  IC50: < 2 µM

## CC(C)(C)c1ccc(N(C(=O)C2CS(=O)(=O)CCN2C#N)C(C(=O)NC2CCCCC2)c2cccnc2)cc1 (centres unmarked) [Compound 226]
229E Mpro; 229E Mpro EC50
  EC50: < 2 µM
HCov OC43; [2]
  IC50: 2 to 10 µM
HCoV 229E; unidentified human coronavirus
  EC50: 2 to 10 µM
[1]
  IC50: < 2 µM

## CC(C)(C)c1ccc(N(C(=O)[C@H]2CCCN2C#N)C(C(=O)NCC(=O)N2CCOCC2)c2cccnc2)cc1 (stereo partly drawn) [Compound 403, (2R)—N-(4-(tert-butyl)phenyl)-1-cyano-N-(2-((2-morpholino-2-oxoethyl)amino)-2-oxo-1-(pyridin-3-yl)ethyl)pyrrolidine-2-carboxamide]
229E Mpro; 229E Mpro EC50
  EC50: < 2 µM
HCov OC43; [2]
  IC50: 2 to 10 µM
HCoV 229E; unidentified human coronavirus
  EC50: 2 to 10 µM
[1]
  IC50: < 2 µM

## CN(C)C(=O)CNC(=O)C(c1cccnc1)N(C(=O)[C@H]1CCCN1C#N)c1ccc(C(C)(C)C)cc1 (stereo partly drawn) [Compound 415, (2R)—N-(4-(tert-butyl)phenyl)-1-cyano-N-(2-((2-(dimethylamino)-2-oxoethyl)amino)-2-oxo-1-(pyridin-3-yl)ethyl)pyrrolidine-2-carboxamide]
229E Mpro; 229E Mpro EC50
  EC50: < 2 µM
HCov OC43; [2]
  IC50: 2 to 10 µM
HCoV 229E; unidentified human coronavirus
  EC50: 2 to 10 µM
[1]
  IC50: 2 to 10 µM

## CC(C)(C)c1ccc(N(C(=O)[C@H]2C[C@@H](O)CN2C#N)C(C(=O)Nc2c(Cl)cccc2Cl)c2cccnc2)cc1 (stereo partly drawn) [Compound 591, (2R,4R)—N-(4-(tert-butyl)phenyl)-1-cyano-N-(2-((2,6-dichlorophenyl)amino)-2-oxo-1-(pyridin-3-yl)ethyl)-4-hydroxypyrrolidine-2-carboxamide]
229E Mpro; 229E Mpro EC50
  EC50: 2 to 10 µM
HCov OC43; [2]
  IC50: > 30 µM
HCoV 229E; unidentified human coronavirus
  EC50: 2 to 10 µM
[1]
  IC50: 2 to 10 µM

## CC(C)(C)c1ccc(N(C(=O)[C@H]2C[C@@H](O)CN2C#N)C(C(=O)NC2CCCCC2)c2c[nH]nn2)cc1 (stereo partly drawn) [Compound 663, (2R,4R)—N-(4-(tert-butyl)phenyl)-1-cyano-N-(2-(cyclohexylamino)-2-oxo-1-(1H-1,2,3-triazol-4-yl)ethyl)-4-hydroxypyrrolidine-2-carboxamide]
229E Mpro; 229E Mpro EC50
  EC50: < 2 µM
HCov OC43; [2]
  IC50: 2 to 10 µM
HCoV 229E; unidentified human coronavirus
  EC50: < 2 µM
[1]
  IC50: 2 to 10 µM

## Cc1nc2ccc(N(C(=O)[C@H]3C[C@@H](O)CN3C#N)C(C(=O)NC3CCCCC3)c3cccnc3)cc2[nH]1 (stereo partly drawn) [Compound 759, (2R,4R)-1-cyano-N-(2-(cyclohexylamino)-2-oxo-1-(pyridin-3-yl)ethyl)-4-hydroxy-N-(2-methyl-1H-benzo[d]imidazol-6-yl)pyrrolidine-2-carboxamide]
229E Mpro; 229E Mpro EC50
  EC50: > 30 µM
HCov OC43; [2]
  IC50: > 30 µM
HCoV 229E; unidentified human coronavirus
  EC50: < 2 µM
[1]
  IC50: > 30 µM
